In experiment [1] the target is Nuclear factor NF-kappa-B complex (Homo sapiens, UniProt P19838+Q00653+Q04206). Put plainly: Inhibition of NF-kappaB (unknown origin). The experiment is classed as protein-complex assay.
Experiment [2] has as its target Cyclin-dependent kinase 6 (Homo sapiens, UniProt Q00534). Kind of experiment: Inhibition of CDK6 (unknown origin).
For experiment [3], the target named is ATP-dependent translocase ABCB1 (Homo sapiens, UniProt P08183). Kind of experiment: Inhibition of MDR1 (unknown origin).
Chain of ATP-dependent translocase ABCB1 (P08183 whole entry): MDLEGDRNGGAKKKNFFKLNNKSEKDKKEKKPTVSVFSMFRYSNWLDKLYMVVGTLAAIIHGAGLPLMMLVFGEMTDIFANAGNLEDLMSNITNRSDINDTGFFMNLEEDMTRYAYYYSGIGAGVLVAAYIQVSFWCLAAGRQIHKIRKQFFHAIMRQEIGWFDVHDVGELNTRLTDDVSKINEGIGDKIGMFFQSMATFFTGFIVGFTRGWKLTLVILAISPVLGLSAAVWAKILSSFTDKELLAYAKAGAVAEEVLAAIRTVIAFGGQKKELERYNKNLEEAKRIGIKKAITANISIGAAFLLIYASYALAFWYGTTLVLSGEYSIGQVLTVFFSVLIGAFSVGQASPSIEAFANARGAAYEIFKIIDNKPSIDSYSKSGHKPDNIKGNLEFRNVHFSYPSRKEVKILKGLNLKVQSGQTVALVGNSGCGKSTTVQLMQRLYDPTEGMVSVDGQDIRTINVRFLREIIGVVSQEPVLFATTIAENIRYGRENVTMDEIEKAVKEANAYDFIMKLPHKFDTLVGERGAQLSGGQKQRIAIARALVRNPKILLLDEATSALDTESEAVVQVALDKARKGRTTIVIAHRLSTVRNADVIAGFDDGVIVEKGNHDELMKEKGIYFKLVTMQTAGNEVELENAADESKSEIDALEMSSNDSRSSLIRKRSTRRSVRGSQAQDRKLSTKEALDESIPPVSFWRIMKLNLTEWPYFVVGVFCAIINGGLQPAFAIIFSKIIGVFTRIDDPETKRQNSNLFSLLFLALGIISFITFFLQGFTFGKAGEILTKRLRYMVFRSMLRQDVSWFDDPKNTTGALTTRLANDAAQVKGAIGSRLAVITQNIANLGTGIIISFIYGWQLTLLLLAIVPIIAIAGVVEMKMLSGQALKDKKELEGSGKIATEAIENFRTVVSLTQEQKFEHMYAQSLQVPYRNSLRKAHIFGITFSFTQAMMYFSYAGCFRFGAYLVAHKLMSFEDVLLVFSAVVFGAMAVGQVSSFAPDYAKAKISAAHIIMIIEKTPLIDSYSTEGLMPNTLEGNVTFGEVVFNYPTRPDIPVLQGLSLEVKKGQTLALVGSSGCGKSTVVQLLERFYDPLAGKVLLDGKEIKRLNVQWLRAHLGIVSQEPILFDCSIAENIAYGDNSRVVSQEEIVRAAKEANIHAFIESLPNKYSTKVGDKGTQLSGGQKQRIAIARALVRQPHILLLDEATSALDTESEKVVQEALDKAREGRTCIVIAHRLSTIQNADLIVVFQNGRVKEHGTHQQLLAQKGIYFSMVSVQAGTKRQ
Experiment [4] concerns the target DNA (cytosine-5)-methyltransferase 1 (Homo sapiens, UniProt P26358). Kind of experiment: Inhibition of DNMT1 (unknown origin).
Experiment [5] concerns the target T1, Histone acetyltransferase type B catalytic subunit (Homo sapiens, UniProt O14929).
T1 sequence (O14929 whole entry): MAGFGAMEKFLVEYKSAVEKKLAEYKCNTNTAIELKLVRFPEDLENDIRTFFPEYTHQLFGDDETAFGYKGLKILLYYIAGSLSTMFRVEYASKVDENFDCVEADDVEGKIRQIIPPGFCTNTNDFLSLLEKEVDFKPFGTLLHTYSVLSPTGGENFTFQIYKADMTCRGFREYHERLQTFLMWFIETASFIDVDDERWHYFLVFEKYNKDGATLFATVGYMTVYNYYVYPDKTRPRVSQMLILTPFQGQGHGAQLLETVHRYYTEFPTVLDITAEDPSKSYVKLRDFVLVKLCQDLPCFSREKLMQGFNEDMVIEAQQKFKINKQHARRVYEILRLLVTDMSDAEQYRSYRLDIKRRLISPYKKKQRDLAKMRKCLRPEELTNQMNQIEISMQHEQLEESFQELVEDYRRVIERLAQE
Kind of experiment: Inhibition of HAT1 (unknown origin).

Experiment [6] deals with Cyclin-dependent kinase 1 (Homo sapiens, UniProt P06493). Kind of experiment: Inhibition of CDK1 (unknown origin).
Experiment [7] deals with Cyclin-dependent kinase 9 (Homo sapiens, UniProt P50750). Kind of experiment: Inhibition of CDK9 (unknown origin).
The target of experiment [8] is Cyclin-dependent kinase 4 (Homo sapiens, UniProt P11802). Put plainly: Inhibition of CDK4 (unknown origin).
Chain of Cyclin-dependent kinase 4 (P11802 whole entry): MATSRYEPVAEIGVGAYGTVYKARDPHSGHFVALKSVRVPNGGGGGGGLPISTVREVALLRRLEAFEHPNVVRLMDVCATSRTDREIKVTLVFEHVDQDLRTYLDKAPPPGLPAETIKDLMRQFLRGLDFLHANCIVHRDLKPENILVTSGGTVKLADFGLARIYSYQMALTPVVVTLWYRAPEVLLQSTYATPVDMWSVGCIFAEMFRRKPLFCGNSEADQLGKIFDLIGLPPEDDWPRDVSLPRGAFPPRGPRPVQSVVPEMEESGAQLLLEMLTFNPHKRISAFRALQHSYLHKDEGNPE

In ChEMBL document CHEMBL5512649, “Drug development and potential targets for Cushing's syndrome” (Eur J Med Chem, 2024) one finds IC50 data, which are given here for ten molecules.

Chain of Nuclear factor NF-kappa-B complex (P19838 1-433 limits assumed): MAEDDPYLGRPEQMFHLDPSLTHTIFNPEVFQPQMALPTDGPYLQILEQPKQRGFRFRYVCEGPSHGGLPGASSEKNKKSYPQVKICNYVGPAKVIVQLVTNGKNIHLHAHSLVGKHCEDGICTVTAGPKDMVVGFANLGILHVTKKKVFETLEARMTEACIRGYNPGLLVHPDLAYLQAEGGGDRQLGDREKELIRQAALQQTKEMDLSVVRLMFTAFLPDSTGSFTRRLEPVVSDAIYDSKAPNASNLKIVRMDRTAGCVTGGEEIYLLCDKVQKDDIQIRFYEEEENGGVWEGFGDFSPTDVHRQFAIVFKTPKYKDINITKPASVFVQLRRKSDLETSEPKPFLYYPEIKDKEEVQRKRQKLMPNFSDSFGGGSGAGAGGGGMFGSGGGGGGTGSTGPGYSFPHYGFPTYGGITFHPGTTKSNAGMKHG
Chain of Nuclear factor NF-kappa-B complex (Q00653 1-454 limits assumed): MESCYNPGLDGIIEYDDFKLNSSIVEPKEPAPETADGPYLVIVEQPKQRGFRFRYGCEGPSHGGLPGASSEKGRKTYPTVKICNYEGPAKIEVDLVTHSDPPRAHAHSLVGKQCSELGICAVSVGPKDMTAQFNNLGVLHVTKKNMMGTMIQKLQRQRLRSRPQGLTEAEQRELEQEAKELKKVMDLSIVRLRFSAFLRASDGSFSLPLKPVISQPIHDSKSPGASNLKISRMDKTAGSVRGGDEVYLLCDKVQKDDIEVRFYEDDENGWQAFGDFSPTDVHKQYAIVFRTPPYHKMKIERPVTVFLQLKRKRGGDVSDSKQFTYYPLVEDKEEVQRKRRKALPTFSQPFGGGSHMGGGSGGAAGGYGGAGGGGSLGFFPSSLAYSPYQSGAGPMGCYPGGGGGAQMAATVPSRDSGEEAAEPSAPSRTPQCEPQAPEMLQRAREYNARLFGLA
Chain of Nuclear factor NF-kappa-B complex (Q04206 whole entry): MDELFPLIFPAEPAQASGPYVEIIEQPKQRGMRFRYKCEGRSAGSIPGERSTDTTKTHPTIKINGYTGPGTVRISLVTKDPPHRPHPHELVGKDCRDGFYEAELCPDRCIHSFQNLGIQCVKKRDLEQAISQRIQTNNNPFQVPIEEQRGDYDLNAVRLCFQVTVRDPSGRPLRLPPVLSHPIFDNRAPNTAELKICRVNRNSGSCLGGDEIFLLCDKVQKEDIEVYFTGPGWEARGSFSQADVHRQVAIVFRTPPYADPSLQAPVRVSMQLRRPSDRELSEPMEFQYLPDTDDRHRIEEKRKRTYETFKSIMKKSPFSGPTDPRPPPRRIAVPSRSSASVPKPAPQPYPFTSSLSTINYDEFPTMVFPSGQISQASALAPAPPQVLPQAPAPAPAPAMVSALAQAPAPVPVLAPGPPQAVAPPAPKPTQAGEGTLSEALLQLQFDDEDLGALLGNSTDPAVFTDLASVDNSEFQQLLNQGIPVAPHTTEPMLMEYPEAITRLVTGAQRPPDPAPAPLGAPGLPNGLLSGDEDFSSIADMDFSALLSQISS
Chain of DNA (cytosine-5)-methyltransferase 1 (P26358 whole entry): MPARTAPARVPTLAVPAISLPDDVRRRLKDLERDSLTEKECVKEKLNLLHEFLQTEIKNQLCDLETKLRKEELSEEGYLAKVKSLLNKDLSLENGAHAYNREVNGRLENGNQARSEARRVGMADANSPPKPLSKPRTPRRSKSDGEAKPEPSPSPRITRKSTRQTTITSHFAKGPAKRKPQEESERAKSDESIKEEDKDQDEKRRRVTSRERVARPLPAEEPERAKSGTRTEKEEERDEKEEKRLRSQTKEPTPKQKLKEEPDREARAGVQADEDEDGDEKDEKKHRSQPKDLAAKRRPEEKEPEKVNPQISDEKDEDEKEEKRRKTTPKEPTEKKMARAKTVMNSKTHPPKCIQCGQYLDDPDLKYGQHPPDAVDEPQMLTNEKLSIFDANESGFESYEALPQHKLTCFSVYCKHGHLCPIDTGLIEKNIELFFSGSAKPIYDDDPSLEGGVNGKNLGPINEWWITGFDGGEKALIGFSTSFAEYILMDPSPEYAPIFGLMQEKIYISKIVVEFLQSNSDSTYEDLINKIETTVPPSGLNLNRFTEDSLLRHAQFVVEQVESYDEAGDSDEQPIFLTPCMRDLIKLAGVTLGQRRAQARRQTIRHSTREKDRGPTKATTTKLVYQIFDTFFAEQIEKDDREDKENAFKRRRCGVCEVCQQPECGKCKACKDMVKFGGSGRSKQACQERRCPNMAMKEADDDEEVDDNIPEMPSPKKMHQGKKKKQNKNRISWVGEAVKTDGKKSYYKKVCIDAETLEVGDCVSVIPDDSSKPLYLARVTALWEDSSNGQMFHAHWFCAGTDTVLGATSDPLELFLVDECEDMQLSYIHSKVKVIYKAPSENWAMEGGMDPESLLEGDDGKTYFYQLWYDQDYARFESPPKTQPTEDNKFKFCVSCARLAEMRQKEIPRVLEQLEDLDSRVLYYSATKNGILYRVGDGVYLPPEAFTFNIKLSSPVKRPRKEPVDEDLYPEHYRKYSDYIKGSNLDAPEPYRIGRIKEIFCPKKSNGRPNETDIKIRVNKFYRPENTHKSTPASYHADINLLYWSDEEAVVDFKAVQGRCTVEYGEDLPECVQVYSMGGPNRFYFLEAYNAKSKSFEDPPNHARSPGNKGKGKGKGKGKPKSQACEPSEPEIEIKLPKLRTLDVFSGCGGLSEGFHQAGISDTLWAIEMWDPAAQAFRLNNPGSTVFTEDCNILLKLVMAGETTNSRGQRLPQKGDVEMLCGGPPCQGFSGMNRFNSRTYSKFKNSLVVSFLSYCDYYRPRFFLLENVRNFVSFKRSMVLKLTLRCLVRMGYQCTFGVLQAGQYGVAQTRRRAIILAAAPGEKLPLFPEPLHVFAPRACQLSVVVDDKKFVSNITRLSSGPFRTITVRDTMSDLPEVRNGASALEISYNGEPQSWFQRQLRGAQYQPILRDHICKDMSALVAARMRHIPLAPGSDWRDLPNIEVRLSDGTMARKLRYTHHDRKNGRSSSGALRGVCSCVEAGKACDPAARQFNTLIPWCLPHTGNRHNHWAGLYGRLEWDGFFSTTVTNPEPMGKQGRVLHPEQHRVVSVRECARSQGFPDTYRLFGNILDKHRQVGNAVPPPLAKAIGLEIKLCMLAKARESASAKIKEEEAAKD
Chain of Cyclin-dependent kinase 6 (Q00534 whole entry): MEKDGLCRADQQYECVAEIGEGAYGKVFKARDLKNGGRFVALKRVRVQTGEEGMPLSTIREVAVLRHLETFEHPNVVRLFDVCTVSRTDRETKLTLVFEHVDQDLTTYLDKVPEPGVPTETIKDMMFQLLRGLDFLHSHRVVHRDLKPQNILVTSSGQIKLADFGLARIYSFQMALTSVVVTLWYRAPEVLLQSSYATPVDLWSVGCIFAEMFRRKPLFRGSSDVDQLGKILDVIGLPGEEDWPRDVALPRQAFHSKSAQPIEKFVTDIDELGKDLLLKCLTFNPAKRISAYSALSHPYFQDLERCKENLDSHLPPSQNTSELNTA

As usually defined, the IC50 is the point on the concentration scale where inhibition reaches its midpoint. For `CC(C)C[C@H](NC(=O)[C@H](Cc1ccccc1)NC(=O)c1cnccn1)B(O)O` [BORTEZOMIB], the half-maximal inhibitory concentration (IC50) in experiment [1] is no more than 0.01 µM.

Regarding `CC(C)c1c2cc(-c3nc(Nc4ccc(N5CCNCC5)cn4)ncc3F)ccc2nn1C` [CULMERCICLIB], in experiment [2], the IC50 is 0.0024 µM. Consider `COc1cc(/C=C/C(=O)CC(=O)/C=C/c2ccc(O)c(OC)c2)ccc1O` [CURCUMIN], for which the IC50 in experiment [3], in experiment [4] and in experiment [5] was no more than 1 µM each time. The molecule `CNC(=O)c1nn(C)c2c1C(C)(C)Cc1cnc(Nc3ccc(N4CCN(C)CC4)cc3)nc1-2` [MILCICLIB] yielded an IC50 in experiment [6] of 0.045 µM. `O=C(Oc1ccccc1C(=O)O)c1ccccc1O` [SALSALATE] came in with an IC50 in experiment [1] of no more than 2 µM.

The molecule `O=C(O)c1cc(/N=N/c2ccc(S(=O)(=O)Nc3ccccn3)cc2)ccc1O` [SULFASALAZINE] returned an IC50 in experiment [1] of 10 µM.

For `CN1CC[C@H](c2c(OP(=O)(O)O)cc(O)c3c(=O)cc(-c4ccccc4Cl)oc23)[C@H](O)C1` [TP-1287], in experiment [7], half-maximal inhibition (IC50) was put at 0.01 µM. As for `CC(C)[C@]12O[C@H]1[C@@H]1O[C@]13[C@]1(O[C@H]1C[C@H]1C4=C(CC[C@@]13C)C(=O)OC4)[C@@H]2O` [TRIPTOLIDE], it took 0.01 µM to reach half-maximal inhibition in experiment [1] (IC50).

In the case of `C[C@@H]1C[C@H]2[C@@H]3CCC4=CC(=O)C=C[C@]4(C)C3=CC[C@]2(C)[C@@]1(O)C(=O)CO` [VAMOROLONE], in experiment [1], it took 0.0659 µM to reach half-maximal inhibition (IC50).

In experiment [8], `CN1CC[C@@H](c2c(O)cc(O)c3c(=O)cc(-c4ccc(C(F)(F)F)cc4Cl)oc23)[C@@H]1CO` [VORUCICLIB] came in with an IC50 of 0.4 µM.
